Tests used:
Type in all cases: cell-based, human
[1] = system: BT-549; experiment: NCI growth inhibition, BT-549; details: BT-549 (Breast)
[2] = system: HS 578T; experiment: NCI growth inhibition, HS 578T; details: HS 578T (Breast)
[3] = system: MDA-MB-231/ATCC; experiment: NCI growth inhibition, MDA-MB-231/ATCC; details: MDA-MB-231/ATCC (Breast)
[4] = system: MDA-MB-435; experiment: NCI growth inhibition, MDA-MB-435; details: MDA-MB-435 (Breast)
[5] = system: MDA-N; experiment: NCI growth inhibition, MDA-N; details: MDA-N (Breast)
[6] = system: NCI/ADR-RES; experiment: NCI growth inhibition, NCI/ADR-RES; details: NCI/ADR-RES (Breast)
[7] = system: T-47D; experiment: NCI growth inhibition, T-47D; details: T-47D (Breast)
[8] = system: SF-268; experiment: NCI growth inhibition, SF-268; details: SF-268 (CNS)
[9] = system: SF-295; experiment: NCI growth inhibition, SF-295; details: SF-295 (CNS)
[10] = system: SF-539; experiment: NCI growth inhibition, SF-539; details: SF-539 (CNS)
[11] = system: SNB-19; experiment: NCI growth inhibition, SNB-19; details: SNB-19 (CNS)
[12] = system: SNB-75; experiment: NCI growth inhibition, SNB-75; details: SNB-75 (CNS)
[13] = system: HCC-2998; experiment: NCI growth inhibition, HCC-2998; details: HCC-2998 (Colon)
[14] = system: HCT-116; experiment: NCI growth inhibition, HCT-116; details: HCT-116 (Colon)
[15] = system: SW-620; experiment: NCI growth inhibition, SW-620; details: SW-620 (Colon)
[16] = system: CCRF-CEM; experiment: NCI growth inhibition, CCRF-CEM; details: CCRF-CEM (Leukemia)
[17] = system: K-562; experiment: NCI growth inhibition, K-562; details: K-562 (Leukemia)
[18] = system: MOLT-4; experiment: NCI growth inhibition, MOLT-4; details: MOLT-4 (Leukemia)
[19] = system: RPMI-8226; experiment: NCI growth inhibition, RPMI-8226; details: RPMI-8226 (Leukemia)
[20] = system: LOX IMVI; experiment: NCI growth inhibition, LOX IMVI; details: LOX IMVI (Melanoma)
[21] = system: M14; experiment: NCI growth inhibition, M14; details: M14 (Melanoma)
[22] = system: SK-MEL-2; experiment: NCI growth inhibition, SK-MEL-2; details: SK-MEL-2 (Melanoma)
[23] = system: SK-MEL-28; experiment: NCI growth inhibition, SK-MEL-28; details: SK-MEL-28 (Melanoma)
[24] = system: UACC-257; experiment: NCI growth inhibition, UACC-257; details: UACC-257 (Melanoma)
[25] = system: UACC-62; experiment: NCI growth inhibition, UACC-62; details: UACC-62 (Melanoma)
[26] = system: A549/ATCC; experiment: NCI growth inhibition, A549/ATCC; details: A549/ATCC (Non-Small Cell Lung)
[27] = system: EKVX; experiment: NCI growth inhibition, EKVX; details: EKVX (Non-Small Cell Lung)
[28] = system: NCI-H23; experiment: NCI growth inhibition, NCI-H23; details: NCI-H23 (Non-Small Cell Lung)
[29] = system: NCI-H322M; experiment: NCI growth inhibition, NCI-H322M; details: NCI-H322M (Non-Small Cell Lung)
[30] = system: NCI-H460; experiment: NCI growth inhibition, NCI-H460; details: NCI-H460 (Non-Small Cell Lung)
[31] = system: NCI-H522; experiment: NCI growth inhibition, NCI-H522; details: NCI-H522 (Non-Small Cell Lung)
[32] = system: IGROV1; experiment: NCI growth inhibition, IGROV1; details: IGROV1 (Ovarian)
[33] = system: OVCAR-3; experiment: NCI growth inhibition, OVCAR-3; details: OVCAR-3 (Ovarian)
[34] = system: OVCAR-4; experiment: NCI growth inhibition, OVCAR-4; details: OVCAR-4 (Ovarian)
[35] = system: OVCAR-5; experiment: NCI growth inhibition, OVCAR-5; details: OVCAR-5 (Ovarian)
[36] = system: OVCAR-8; experiment: NCI growth inhibition, OVCAR-8; details: OVCAR-8 (Ovarian)
[37] = system: PC-3; experiment: NCI growth inhibition, PC-3; details: PC-3 (Prostate)
[38] = system: 786-0; experiment: NCI growth inhibition, 786-0; details: 786-0 (Renal)
[39] = system: A498; experiment: NCI growth inhibition, A498; details: A498 (Renal)
[40] = system: ACHN; experiment: NCI growth inhibition, ACHN; details: ACHN (Renal)
[41] = system: CAKI-1; experiment: NCI growth inhibition, CAKI-1; details: CAKI-1 (Renal)
[42] = system: RXF 393; experiment: NCI growth inhibition, RXF 393; details: RXF 393 (Renal)
[43] = system: SN12C; experiment: NCI growth inhibition, SN12C; details: SN12C (Renal)
[44] = system: UO-31; experiment: NCI growth inhibition, UO-31; details: UO-31 (Renal)

How did the GI50 [1] turn out when `CC(=O)N[C@H]1CC[C@H](Nc2nc(NCc3ccc(-c4ccccc4)nc3)c3ncn(C(C)C)c3n2)CC1` [Compound 87] was run?
Its GI50 is 20 nM.

And the GI50 [2]?
Its GI50 is < 10 nM.

And the GI50 [3]?
Its GI50 is < 10 nM.

What about the GI50 [4] of the same compound?
Its GI50 is < 10 nM.

And the GI50 [5]?
The GI50 was 14 nM.

What about the GI50 [6] of the same compound?
Its GI50 is 280 nM.

What about the GI50 [7] of the same compound?
Its GI50 is 48 nM.

And the GI50 [8]?
Its GI50 is < 10 nM.

What about the GI50 [9] of the same compound?
Its GI50 is 47 nM.

What about the GI50 [10] of the same compound?
The GI50 was 81 nM.

And the GI50 [11]?
The GI50 was 38 nM.

And the GI50 [12]?
The GI50 was 12 nM.

And the GI50 [13]?
The GI50 was < 10 nM.

And the GI50 [14]?
The GI50 was 37 nM.

And the GI50 [15]?
The GI50 was < 10 nM.

And the GI50 [16]?
The GI50 was < 10 nM.

What about the GI50 [17] of the same compound?
The GI50 was 24 nM.

What about the GI50 [18] of the same compound?
The GI50 was 20 nM.

And the GI50 [19]?
The GI50 was < 10 nM.

And the GI50 [20]?
Its GI50 is 27 nM.

What about the GI50 [21] of the same compound?
Its GI50 is < 10 nM.

And the GI50 [22]?
The GI50 was 56 nM.

What about the GI50 [23] of the same compound?
Its GI50 is < 10 nM.

What about the GI50 [24] of the same compound?
The GI50 was 17 nM.

What about the GI50 [25] of the same compound?
The GI50 was 45 nM.

And the GI50 [26]?
The GI50 was < 10 nM.

And the GI50 [27]?
The GI50 was 81 nM.

And the GI50 [28]?
Its GI50 is 22 nM.

And the GI50 [29]?
Its GI50 is 21 nM.

What about the GI50 [30] of the same compound?
The GI50 was 220 nM.

And the GI50 [31]?
The GI50 was < 10 nM.

And the GI50 [32]?
The GI50 was 52 nM.

And the GI50 [33]?
Its GI50 is 50 nM.

What about the GI50 [34] of the same compound?
The GI50 was 48 nM.

What about the GI50 [35] of the same compound?
The GI50 was 51 nM.

And the GI50 [36]?
Its GI50 is 33 nM.

What about the GI50 [37] of the same compound?
Its GI50 is 18 nM.

And the GI50 [38]?
Its GI50 is 47 nM.

What about the GI50 [39] of the same compound?
The GI50 was 100 nM.

And the GI50 [40]?
The GI50 was 190 nM.

And the GI50 [41]?
Its GI50 is 64 nM.

What about the GI50 [42] of the same compound?
Its GI50 is 11 nM.

And the GI50 [43]?
The GI50 was < 10 nM.

And the GI50 [44]?
The GI50 was 16 nM.

Source: patent US6667311B2, “Nitrogen substituted biaryl purine derivatives as potent antiproliferative agents” (Albany Molecular Research, Inc., priority 2001, dated 2003)
